Experimental data: patent US20050014835A1, “Agents for Treating Diseases Caused by Nonsense Mutations” (priority 2001, published 2005)

What was measured:
[1] = type: in vivo; settings: highest dose 1.2×10^−3 mol/kg/day (100×)
Description: In order to measure changes in body weight due to drug administration, male mdx mice (seven weeks old, four for each dose) were injected daily with NM at 1.2×10^−5 mol/kg (1× the effective dose), 1.2×10^−4 mol/kg (10×), 6.0×10^−4 mol/kg (50×), or 1.2×10^−3 mol/kg (100×) for 14 days. The body weight of each mouse was measured everyday. Other mdx mice (seven weeks old, two for each dose) were injected with GM (1.2×10^−3 mol/kg [100×]) as a control test. Body weight was also measured every day.

dystrophin [2] = assay: Immunofluorescence staining of dystrophin in TA muscle of drug-treated mdx mice; type: in vivo
Description: (§1) Mdx mice were used as a dystrophy mouse model. NM was dissolved in PBS and Millipore-filtered just before injection, in order to avoid degradation during storage in solution. Mdx mice (male, seven week-old, six for each dose) were injected subcutaneously with an NM solution (137 mM NaCl, 2.68 mM KCl, 8.10 mM […], and 1.47 mM KH2PO4) prepared using PBS, at half the concentration (1.2×10^−5 mol/kg) of the solution in the GM experiment by Barton-Davis et al. (Barton-Davis, E. R., Cordiner, L. Shoturma, D. I., Leiland, S. E., Sweeney, H. L. (1999) Aminoglycoside antibiotics restore dystrophin function to skeletal muscles of mdx mice. J. Clin. Invest. 104, 375-381) every day for two weeks. Control mdx mice (n=6) and C57BL/10 (B10, n=6) mice were injected with PBS (0.1 ml) alone, every day for two weeks.
(§2) After injection, immunofluorescence and Evans Blue staining were performed to detect dystrophin. Immunofluoresce staining was carried out as follows using antibodies against the C-terminus of dystrophin. Animals were sacrificed using an overdose of ether gas. The tibialis anterior (TA) muscles were removed and frozen in melting isopentane for immunohistochemistry. Then, 7 μm transverse cryosections were prepared. […] After labeling with secondary antibodies, dystrophin was detected by fluorescence microscopy, based on fluorescence emission. […]

TA muscle fibers = assay: Evans Blue Dye staining of degenerating muscle fibers in drug-treated mdx mice; type: in vivo; settings: 1.2×10^−5 mol/kg/day subcutaneously for two weeks, FIG. 2
Description: as §1, §2

dystrophin [3] = assay: Immunoprecipitation and immunoblotting of dystrophin in muscles of NM-treated mdx mice; type: in vivo
Description: The left hind leg muscle (600 mg), the diaphragm (100 mg), and the cardiac muscle (100 mg) were collected from NM-treated mdx mice, NM-untreated mdx mice, and B10 mice as described above. Each of the specimens was homogenized in 15 ml of a homogenizing solution (pH 7.2) (pyrophosphate mixture, 20 mM Na4P2O7, 20 mM NaH2PO4, and 1 mM MgCl2, pH 7.1) containing 10% sucrose and 0.5 mM EDTA. The homogenization was carried out with a Teflon homogenizer at maximal speed for one minute (Mitchell, R. D., Palade, P., and Fleicher, S. (1983) Purification of morphologically intact triad structures from skeletal muscle. J. Cell Biol. 96, 1008-1016; Yoshida, M., Suzuki, A., Shimizu, T., and Ozawa, E. (1992) Proteinase-sensitive sites on isolated rabbit dystrophin. J. Biochem. 112, 433-439). The homogenate was centrifuged in an RA rotor (KUBOTA) at 9,000 rpm for 15 minutes. […]
Immunoprecipitation was performed as described by Abe et al. (Abe, M., Saitoh, O., Nakata, H., Yoda, A., and Matsuda, R. (1996) Expression of neurofilament proteins in proliferating C2C12 mouse skeletalmuscle cells. Exp. Cell Res. 229, 48-59) using muscle protein sample preparations prepared from mdx mice and B10 mice as described above. […] After boiling, the supernatant was collected, and the protein concentration thereof was determined by microburette method. […]

dystrophin [4] = assay: Immunofluorescence staining of dystrophin in cultured mdx-sk myotubes; type: cell-based, mdx mouse; settings: 50 μg/ml, seven days
Excerpt: The SV40T immortalized mdx satellite cell line, mdx-sk, was newly established from the mdx mouse to test the dystrophin restoring level in cultured mdx skeletal muscle cells. The mdx-sk line was established by introducing a retroviral vector carrying a cDNA for the temperature-sensitive form of the Simian Virus 40 large T antigen (a kind gift from Dr. Drinkwater) to a primary culture of mdx myoblasts obtained from the mdx mice. The retrovirus was produced using the packaging cell line, Plat-E, as previously described (Morita, S., Kojima, T., Kitamura, T. (2000) Plat-E: an efficient andstable system for transient packaging of retroviruses. Gene Therapy 7, 1063-1066). The cell line was cultured and maintained in Dulbecco's Modified Eagle Medium (DMEM)-high glucose (4,500 mg/l) supplemented with 20% fetal calf serum at 32.5° C. in a CO2 incubator. To induce muscle differentiation, the culture medium was changed to a differentiation medium (10% horse serum in Eagle MEM) and the culture temperature was shifted to 39.5° C. […]
In order to examine whether NM can restore dystrophin expression in the mdx-sk cells established as described above, NM was added at a concentration of 50 μg/ml or 100 μg/ml to a differentiation medium of myotubes cultured for seven days, and then culture was continued for another seven days. […] The cells were then observed under a fluorescence microscope.

dystrophin [5] = assay: Immunoblotting of dystrophin in cultured mdx-sk myotubes; type: cell-based, mdx mouse; settings: 100 μg/ml, seven days
Excerpt: The SV40T immortalized mdx satellite cell line, mdx-sk, was newly established from the mdx mouse to test the dystrophin restoring level in cultured mdx skeletal muscle cells. The mdx-sk line was established by introducing a retroviral vector carrying a cDNA for the temperature-sensitive form of the Simian Virus 40 large T antigen (a kind gift from Dr. Drinkwater) to a primary culture of mdx myoblasts obtained from the mdx mice. The retrovirus was produced using the packaging cell line, Plat-E, as previously described (Morita, S., Kojima, T., Kitamura, T. (2000) Plat-E: an efficient andstable system for transient packaging of retroviruses. Gene Therapy 7, 1063-1066). The cell line was cultured and maintained in Dulbecco's Modified Eagle Medium (DMEM)-high glucose (4,500 mg/l) supplemented with 20% fetal calf serum at 32.5° C. in a CO2 incubator. To induce muscle differentiation, the culture medium was changed to a differentiation medium (10% horse serum in Eagle MEM) and the culture temperature was shifted to 39.5° C.
After induction of differentiation, the cells were cultured, and NM (50 μg/ml (2.0×10^−4 mol/kg) or 100 μg/ml (4.0×10^−4 mol/kg) in a differentiation medium solution) was added to the culture. Then, the cells were allowed to differentiate by culturing in the medium without an antibiotic for seven days. […]

[6] = Ototoxicity assay: hearing threshold by auditory brain stem response; type: in vivo, Mdx mouse; settings: 1.2×10^−4 mol/kg daily for seven days, measured one day after final injection
Description: One day after the final injection, the hearing threshold was measured based on auditory brain stem response, according to the method of Shapiro et al. (Shapiro, S. M., Moller, A. R., Shiu, G. K. Brain-stem auditory evoked potentials in rats with high-dose pentbarbital. (1984) Electroencephalogr. Clin. Neurophysiol. 58, 266-276).

Row | Compound | lethality [1] | percentage of dystrophin-positive TA muscle fibers (dystrophin [2]; 1.2×10^−5 mol/kg/day subcutaneously for two weeks, FIG. 2) | dystrophin-positive fibers by immunofluorescence staining (dystrophin [2]; TA muscle, 1.2×10^−5 mol/kg subcutaneously every day for two weeks) | percentage of fibers with increased membrane permeability (EBD-positive fibers) (TA muscle fibers) | dystrophin expression level restored, relative to normal B10 hind leg muscle (dystrophin [3]; hind leg muscle, immunoblotting, estimated) | dystrophin bands by immunoblotting (dystrophin [3]; hind leg muscles (FIG. 3(1) G, H, I), 1.2×10^−5 mol/kg/day for two weeks, intensity lower than positive control B10) | dystrophin expression by immunofluorescence staining (dystrophin [4]) | dystrophin (427 kDa) band by immunoblotting (dystrophin [5]) | hearing loss by auditory brain stem response [6]
1 | Gentamicin [GM, reference compound] | killed all of the tested mice within four hours |  |  |  |  |  |  |  | 
2 | CN(CC(=O)O)NC(=O)C[C@H](N)C[C@@H](O)CN [NM, negamycin] | not lethally toxic | higher than in GM-treated mdx mice | detected | lower in NM-treated mice than in GM-treated mice | about 10% | dystrophin bands were detected | strong fluorescence signals were detected | a clear band was detected at the position of 427 kDa | not in NM-treated mice
